Data as given in US20080221047A1, “Aminoakyl methacrylate copolymer E for maintaining solubility of poorly-soluble drug” (ASTELLAS PHARMA INC.,, priority 2006, published 2008).

Experiments:
[1] = cited from earlier work
[2] = Reprecipitation (dissolution) test for tacrolimus dissolved in ethanol, Experimental Example 6; assay type: physicochemical
Procedure: (§1) Each (300 mg) of the aminoalkyl methacrylate copolymer E having a solubility enhanced with acid prepared in Example 4, and hydroxypropylmethylcellulose 2910 (TC-5E, Shin-Etsu Chemical Co., Ltd.) was dissolved in 300 mL of a second fluid for disintegrating test used in a disintegrating test described in the Japanese Pharmacopoeia fifteenth edition. For comparison, 300 mL of a second fluid for disintegrating test used in a disintegrating test described in the Japanese Pharmacopoeia fifteenth edition without such additives was prepared.
To each vessel, 1 mL of a solution of tacrolimus (100 mg/mL) in ethanol was added. Samples were taken at regular intervals, and centrifuged at 3000 rpm for 15 minutes. Tacrolimus dissolved in each supernatant was measured by a high performance liquid chromatography.

[3] = Reprecipitation test for compound A with copolymers of different amounts of neutralization, Experimental Example 3; assay type: physicochemical; settings: compound A in acetonitrile; fluid containing copolymer E of Examples 5, 6 or 7 (every Example)
Procedure: Each of the aminoalkyl methacrylate copolymers E having a solubility enhanced with acid prepared in Examples 5, 6, and 7 was dissolved in 500 mL of a second fluid for dissolution test used in a dissolution test described in the Japanese Pharmacopoeia fifteenth edition.
(§2) To each vessel, 2 mL of a solution of compound A (25 mg/mL) in acetonitrile was added, and an automated dissolution tester (Toyama Sangyo Co., Ltd.) was used to carry out a reprecipitation test for compound A, in accordance with a dissolution test, method 2, described in the Japanese Pharmacopoeia. The absorbance of compound A was measured at a wavelength of 273 nm. The paddle rotation speed was 50 rpm. The percentage dissolved was calculated on the basis that an absorbance of 0.576 when measured using a 1 mm cell was regarded as a concentration of 100 μg/mL (compound A).

[4] = Reprecipitation test for compound A with copolymer solubilized with citric acid, Experimental Example 4; assay type: physicochemical; settings: compound A in acetonitrile; fluid containing copolymer E of Example 8 (citric acid)
Procedure: as §1, with “(50” for “(300”, “copolymers” for “copolymer”, “Examples 1” for “Example 4,”, “8” for “hydroxypropylmethylcellulose 2910 (TC-5E, Shin-Etsu Chemical Co., Ltd.)”, “500” for “300”
as §2, with “Pharmacopoeia. The ultraviolet absorbance of” for “Pharmacopoeia. The absorbance of”

[5] = Reprecipitation (dissolution) test for compound A dissolved in polyethylene glycol 400, Experimental Example 2; assay type: physicochemical; settings: compound A in polyethylene glycol 400
Procedure: as §1, with “(50” for “(300”, “1,” for “4,”, “500” for “300”, “dissolution” for “disintegrating”
as §2, with “mg/mL) in polyethylene glycol 400 (Kanto Chemical Co., Inc.) was added,” for “mg/mL) in acetonitrile was added,”, “dissolution tester (manufactured by Toyama Sangyo Co.,” for “dissolution tester (Toyama Sangyo Co.,”, “Pharmacopoeia. The ultraviolet absorbance of” for “Pharmacopoeia. The absorbance of”

[6] = Reprecipitation (dissolution) test for compound A dissolved in acetonitrile, Experimental Example 1; assay type: physicochemical
Procedure: as §1, with “(50” for “(300”, “1,” for “4, and”, “Ltd.), and copolyvidone (Kollidon VA-64, BASF)” for “Ltd.)”, “500” for “300”
as §2, with “dissolution tester (manufactured by Toyama Sangyo Co.,” for “dissolution tester (Toyama Sangyo Co.,”, “Pharmacopoeia. The ultraviolet absorbance of” for “Pharmacopoeia. The absorbance of”

[7] = fluid containing hydroxypropylmethylcellulose 2910, after 2 hours

percentage dissolved ([2]; fluid containing copolymer E of Example 4, after 24 hours) [%]	percentage dissolved [2, 7]	maintenance of solubility [4]	percentage dissolved ([5]; fluid containing copolymer E of Example 1, after 24 hours)	percentage dissolved [5, 7]	percentage dissolved ([6]; compound A in acetonitrile added to JP second fluid containing copolymer E of Example 1 (50 mg/500 mL), after 24 hours)	percentage dissolved ([6]; compound A in acetonitrile added to JP second fluid containing copolyvidone (50 mg/500 mL), after 2 hours)	percentage dissolved ([6]; compound A in acetonitrile added to JP second fluid containing hydroxypropylmethylcellulose 2910 (50 mg/500 mL), after 2 hours)	SMILES	water solubility [1] [µg/mL]	reprecipitation ([2]; absence of additives)	maintenance of solubility [3]	reprecipitation ([5]; absence of additives)	reprecipitation ([6]; compound A in acetonitrile added to JP second fluid, absence of additives)
≥ 90	approximately 20%							C=CC[C@@H]1/C=C(\C)C[C@H](C)C[C@H](OC)[C@H]2O[C@@](O)(C(=O)C(=O)N3CCCC[C@H]3C(=O)O[C@H](/C(C)=C/[C@@H]3CC[C@@H](O)[C@H](OC)C3)[C@H](C)[C@@H](O)CC1=O)[C@H](C)C[C@@H]2OC [tacrolimus]	≤ 1	reprecipitated immediately after the beginning of the test			
		maintained for a long time	approximately 75%	approximately 30%	approximately 75%	approximately 30%	approximately 30%	Cc1cccc(C)c1N(CC(=O)Nc1ccc(-c2ncon2)cc1)C(=O)C1CCS(=O)(=O)CC1 [compound A, N-(2,6-Dimethylphenyl)-N-(2-{[4-(1,2,4-oxadiazol-3-yl)phenyl]amino}-2-oxoethyl)tetrahydro-2H-thiopyran-4-carboxamide 1,1-dioxide]			a high solubility was maintained for a long time	reprecipitated immediately after the beginning of the test	reprecipitated immediately after the beginning of the test
